Assay results: patent US6365591B1, “Isoxazolecarboxamide derivatives” (Recordati, S.A., Chemical and Pharmacueticals Company, priority 1999, dated 2002)

Key:
[1] = target: T1, recombinant α1a-adrenoceptor (UniProt P35348); details: read-out: Affinity for recombinant α1a-adrenoceptor subtype, Ki; [3H]prazosin, membranes of transfected cells; mean Ki
T1 sequence (P35348 1-466): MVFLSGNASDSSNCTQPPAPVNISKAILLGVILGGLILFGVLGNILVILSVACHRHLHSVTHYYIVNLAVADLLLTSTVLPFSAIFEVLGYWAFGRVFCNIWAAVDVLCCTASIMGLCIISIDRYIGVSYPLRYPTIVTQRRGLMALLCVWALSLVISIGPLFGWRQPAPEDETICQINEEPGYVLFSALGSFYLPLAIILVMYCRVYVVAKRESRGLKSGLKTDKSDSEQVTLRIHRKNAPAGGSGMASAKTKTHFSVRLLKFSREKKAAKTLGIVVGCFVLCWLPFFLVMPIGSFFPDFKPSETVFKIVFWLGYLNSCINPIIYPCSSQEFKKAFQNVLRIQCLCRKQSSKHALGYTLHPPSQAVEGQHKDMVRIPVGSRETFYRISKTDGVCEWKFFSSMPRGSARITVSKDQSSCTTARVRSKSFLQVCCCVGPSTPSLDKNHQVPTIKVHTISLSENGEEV
Protocol: (§4) Determination of Affinity for Cloned α1 Adrenergic Receptors and 5-HT1A Serotoninergic Receptors by Radioligand Binding Assay
(§5) Determination of affinity for cloned subtypes of the α1-adrenoceptor was performed in membranes from cells transfected by electroporation with DNA expressing the genes encoding each α1-adrenoceptor subtype.
(§6) Non-specific binding was determined in the presence of 10 μM phentolamine. Incubation was stopped by addition of ice-cold Tris buffer and rapid filtration through 0.2%-polyethyleneimine pretreated Schleicher & Schuell GF52 filters.

[2] = target: T2, recombinant α1b-adrenoceptor (Homo sapiens, UniProt P35368); test: biochemical
T2 sequence (P35368 1-520): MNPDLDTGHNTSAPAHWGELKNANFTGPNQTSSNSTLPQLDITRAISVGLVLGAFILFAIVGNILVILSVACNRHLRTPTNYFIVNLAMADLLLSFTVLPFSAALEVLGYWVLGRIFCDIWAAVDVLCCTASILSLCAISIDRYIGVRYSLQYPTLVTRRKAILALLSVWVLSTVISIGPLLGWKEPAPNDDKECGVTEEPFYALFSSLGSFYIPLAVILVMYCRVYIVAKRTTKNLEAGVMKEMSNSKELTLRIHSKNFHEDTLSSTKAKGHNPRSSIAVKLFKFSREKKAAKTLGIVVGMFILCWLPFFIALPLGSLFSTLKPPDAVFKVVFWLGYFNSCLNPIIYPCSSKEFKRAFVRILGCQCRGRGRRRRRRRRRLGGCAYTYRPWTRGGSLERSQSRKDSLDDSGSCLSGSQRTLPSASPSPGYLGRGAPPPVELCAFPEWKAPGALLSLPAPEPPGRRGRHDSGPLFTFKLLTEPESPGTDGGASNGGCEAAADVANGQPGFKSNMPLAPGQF
Protocol: as §4, §5, §6

[3] = target: T3, human 5-HT1A-serotoninergic receptor (Homo sapiens, UniProt P08908); test: Radioligand binding ([3H]8-OH-DPAT) to cloned 5-HT1A receptor in HeLa cell membranes; details: mean Ki, read-out: Affinity for 5-HT1A receptor, Ki
T3 construct: expressed in transfected cells; host or cells: HeLa
T3 sequence (P08908 1-422): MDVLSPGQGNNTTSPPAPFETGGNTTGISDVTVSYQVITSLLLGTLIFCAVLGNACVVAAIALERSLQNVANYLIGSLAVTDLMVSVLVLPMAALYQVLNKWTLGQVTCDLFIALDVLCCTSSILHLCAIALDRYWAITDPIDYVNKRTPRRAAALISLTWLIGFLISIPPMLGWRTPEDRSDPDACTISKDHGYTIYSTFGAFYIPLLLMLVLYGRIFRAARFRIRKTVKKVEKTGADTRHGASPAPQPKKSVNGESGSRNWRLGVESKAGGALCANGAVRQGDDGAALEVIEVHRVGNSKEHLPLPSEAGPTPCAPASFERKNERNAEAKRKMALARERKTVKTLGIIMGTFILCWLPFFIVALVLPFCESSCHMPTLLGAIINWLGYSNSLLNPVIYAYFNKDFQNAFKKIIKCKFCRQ
Excerpt: Data were expressed as mean Ki.

diastolic blood pressure = test: Diastolic blood pressure in anaesthetised dogs, i.v. administration; assay type: in vivo, dog
Protocol: (§1) Effects on Urethral Contractions (Induced by Noradrenaline Injection and Hypogastric-nerve Stimulation) and on Blood Pressure in Dogs After Intravenous Administration
(§2) The experiments were performed according to the method of Imagawa et al. (J. Pharmacol. Methods, 22:103-111, 1989) with substantial modifications, as follows: adult male beagle dogs, weighing 8-10 kg, were anaesthetised with pentobarbital sodium (30 mg/kg i.v. and 2 mg/kg/h i.v.), intubated and spontaneously ventilated with room air. In order to monitor systemic blood pressure (BP), a polyethylene (PE) catheter was introduced into the aortic arch through the left femoral artery. A collateral of the left femoral vein was cannulated for infusion of anaesthetic, and the right femoral vein was cannulated for administration of the compounds. […] Prostatic urethral pressure was monitored with a Mikro-tip catheter (5F) introduced into the bladder via the external urethral meatus, and withdrawn until the pressure transducer was positioned in the prostatic region of the urethra. […]
(§3) After a stabilizing period following the surgical procedure (30 minutes), in which arterial and prostatic urethral pressure were continuously monitored as basal values, i.a. administration of NA and stimulation of the hypogastric nerve were alternately made at intervals of 10 minutes. […]

[4] = tested on: prostatic urethral pressure (noradrenaline-induced); test: Urethral contractions induced by intraarterial noradrenaline in anaesthetised dogs, i.v. administration; assay type: in vivo, dog
Protocol: as §1, §2, §3

[5] = tested on: prostatic urethral pressure (hypogastric-nerve stimulation); test: Urethral contractions induced by hypogastric-nerve stimulation in anaesthetised dogs, i.v. administration; assay type: in vivo, dog
Protocol: as §1, §2, §3

[6] = target: T4, recombinant α1d-adrenoceptor (UniProt P25100); details: [3H]prazosin, membranes of transfected cells; mean Ki
T4 sequence (P25100 1-572): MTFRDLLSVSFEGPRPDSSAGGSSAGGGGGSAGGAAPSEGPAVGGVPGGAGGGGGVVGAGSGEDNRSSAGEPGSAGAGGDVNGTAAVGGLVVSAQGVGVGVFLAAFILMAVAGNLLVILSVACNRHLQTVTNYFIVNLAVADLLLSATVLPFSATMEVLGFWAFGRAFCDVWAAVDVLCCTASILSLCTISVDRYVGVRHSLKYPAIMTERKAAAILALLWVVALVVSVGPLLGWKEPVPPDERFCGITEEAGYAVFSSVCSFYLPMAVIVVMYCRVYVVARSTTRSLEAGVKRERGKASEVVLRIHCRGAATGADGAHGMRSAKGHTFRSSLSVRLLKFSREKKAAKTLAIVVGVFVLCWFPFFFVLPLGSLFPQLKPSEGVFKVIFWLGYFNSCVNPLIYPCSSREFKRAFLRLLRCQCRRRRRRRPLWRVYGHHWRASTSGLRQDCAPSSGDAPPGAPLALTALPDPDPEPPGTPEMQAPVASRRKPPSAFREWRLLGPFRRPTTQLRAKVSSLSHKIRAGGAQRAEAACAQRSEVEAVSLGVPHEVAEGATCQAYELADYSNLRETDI
Protocol: as §4, §5, §6

Compound: COc1ccc(Cl)cc1N1CCN(CCCNC(=O)c2c(-c3ccccc3)noc2C)CC1 [Example 1, N-{3-[4-(5-Chloro-2-methoxyphenyl)-1-piperazinyl]propyl}-5-methyl-3-phenylisoxazole-4-carboxamide]
- Ki [1]: 0.77 nM
- Ki [2]: 23.6 nM
- Ki [3]: 436 nM
- DBP ED25: dose inducing a 25% decrease in diastolic blood pressure (diastolic blood pressure): 0.3545 mg/kg

Compound: Cc1onc(-c2ccccc2)c1C(=O)NCCCN1CCN(c2cc(Cl)ccc2O)CC1 [Example 2, N-{3-[4-(5-Chloro-2-hydroxyphenyl)-1-piperazinyl]propyl}-5-methyl-3-phenylisoxazole-4-carboxamide]
- Ki [2]: 9.97 nM
- Ki [3]: 49.5 nM

Compound: Cc1onc(-c2ccccc2)c1C(=O)NCCCN1CCN(c2ccccc2OCC(F)(F)F)CC1 [Example 3, 5-Methyl-3-phenyl-N-{3-[4-[2-(2,2,2-trifluoroethoxy)phenyl]-1-piperazinyl]propyl}isoxazole-4-carboxamide]
- Ki [2]: 36.2 nM
- Ki [3]: 11.7 nM

Compound: COc1ccc(OCC(F)(F)F)cc1N1CCN(CCCNC(=O)c2c(-c3ccccc3)noc2C)CC1 [Example 4, N-{3-[4-[2-Methoxy-5-(2,2,2-trifluoroethoxy)phenyl]-1-piperazinyl]propyl}-5-methyl-3-phenylisoxazole-4-carboxamide]
- Ki [2]: 570 nM

Compound: Cc1onc(-c2ccccc2)c1C(=O)NCCCN1CCN(c2cc(F)ccc2OCC(F)(F)F)CC1 [Example 5, N-{3-[4-[5-Fluoro-2-(2,2,2-trifluoroethoxy)phenyl]-1-piperazinyl]propyl}-5-methyl-3-phenylisoxazole-4-carboxamide]
- Ki [1]: 0.05 nM
- Ki [2]: 11.5 nM
- Ki [3]: 192 nM

Compound: Cc1onc(-c2ccccc2)c1C(=O)NCCCN1CCN(c2ccc(F)cc2OCC(F)(F)F)CC1 [Example 6, N-{3-[4-[4-Fluoro-2-(2,2,2-trifluoroethoxy)phenyl]-1-piperazinyl]propyl}-5-methyl-3-phenylisoxazole-4-carboxamide]
- Ki [1]: 0.35 nM
- UP ID50 NA: dose inhibiting by 50% the urethral contractions induced by noradrenaline [4]: 0.0024 mg/kg
- Ki [2]: 69.5 nM
- Ki [3]: 317 nM
- UP ID50 HYP: dose inhibiting by 50% the urethral contractions induced by hypogastric-nerve stimulation [5]: 0.0045 mg/kg
- DBP ED25: dose inducing a 25% decrease in diastolic blood pressure (diastolic blood pressure): 0.1967 mg/kg

Compound: Cc1onc(-c2ccccc2)c1C(=O)NCCCN1CCN(c2cc(Cl)ccc2OS(=O)(=O)C(F)(F)F)CC1 [Example 7, N-{3-[4-(5-Chloro-2-trifluoromethanesulphonyloxy)-1-piperazinyl]propyl}-5-methyl-3-phenylisoxazole-4-carboxamide]
- Ki [2]: 7.49 nM
- Ki [3]: ≥ 1000 nM

Compound: O=C(NCCCN1CCN(c2ccc(F)cc2OCC(F)(F)F)CC1)c1conc1-c1ccc(F)cc1 [Example 8, 3-(4-Fluorophenyl)-N-[3-[4-[4-fluoro-2-(2,2,2-trifluoroethoxy)phenyl]-1-piperazinyl]propyl]-isoxazole-4-carboxamide]
- Affinity for recombinant α1d-adrenoceptor subtype, Ki [6]: 25/81
- Ki [2]: 28.1 nM
- Ki [3]: 202 nM

Compound: Cc1onc(-c2c(F)cccc2Cl)c1C(=O)NCCCN1CCN(c2ccc(F)cc2OCC(F)(F)F)CC1 [Example 9, 3-(2-Chloro-6-fluorophenyl)-N-[3-[4-[4-fluoro-2-(2,2,2-trifluoroethoxy)phenyl]-1-piperazinyl]-propyl]-5-methylisoxazole-4-carboxamide]
- Ki [2]: 24.1 nM
- Ki [3]: 342 nM

Compound: Cc1onc(-c2c(Cl)cccc2Cl)c1C(=O)NCCCN1CCN(c2ccc(F)cc2OCC(F)(F)F)CC1 [Example 10, 3-(2,6-Dichlorophenyl)-N-[3-[4-[4-fluoro-2-(2,2,2-trifluoroethoxy)phenyl]-1-piperazinyl]pro-pyl]-5-methylisoxazole-4-carboxamide]
- Ki [2]: 24.2 nM
- Ki [3]: 170 nM

Compound: Cc1onc(-c2ccccc2Cl)c1C(=O)NCCCN1CCN(c2ccc(F)cc2OCC(F)(F)F)CC1 [Example 11, 3-(2-Chlorophenyl)-N-[3-[4-[4-fluoro-2-(2,2,2-trifluoroethoxy)phenyl]-1-piperazinyl]propyl]-5-methylisoxazole-4-carboxamide]
- Ki [2]: 31.2 nM
- Ki [3]: 242 nM

Compound: Cc1onc(-c2c(F)cccc2Cl)c1C(=O)NCCCN1CCN(c2ccccc2OCC(F)(F)F)CC1 [Example 12, 3-(2-Chloro-6-fluorophenyl)-5-methyl-N-[3-[4-[2-(2,2,2-trifluoroethoxy)phenyl]1-piperazi-nyl]propyl]isoxazole-4-carboxamide]
- Ki [2]: 21.4 nM
- Ki [3]: 30 nM
